# From patent publication US20140073634A1 (Institute For Applied Cancer Science/The University of …, priority 2012, published 2014)
# Where a name gives a salt, the structure may show the parent alone.
# Test system: 293T-HRE-GFP-luc cells
# Test: Cell-based reporter assay for IC50 determinations (HRE-luciferase, hypoxia)
# Details: 6 h, 6 hrs hypoxia (1% O2), luminescence
# Method: Cell-Based Reporter Assay for IC50 Determinations
# 293T-HRE-GFP-luc cells were routinely maintained in DMEM media (high glucose version with GlutaMAX and HEPES, Gibco, catalog #10564) supplemented with 10% fetal bovine serum and 2 μg/mL puromycin (Invitrogen, catalog #A11138-03) using a humidified incubator (normoxia conditions consisting of 37° C., 5% CO2 and ambient O2).
# In preparation for the reporter assay, cells were harvested and resuspended in DMEM media (high glucose version with GlutaMAX and HEPES) supplemented with 10% fetal bovine serum. Cells were inoculated into 384-well white Culturplates (Perkin Elmer catalog #6007680) at a density of 12,000 cells/well in a volume of […]. The microplates were incubated overnight (approximately 17-19 hours) at 37° C. with 5% CO2 and ambient O2. Stock solutions of the test compounds were prepared in DMSO (Sigma, Catalog #D2650) and serially diluted 1:3 using DMSO. Compounds were additionally diluted (1:50) with culturemedium and 10 µL were added per well to the Culturplate. Following a 30 min. incubation under normoxia conditions, the plates were incubated in hypoxia for 6 hrs. (37° C., 5% CO2 and 1% O2). Steadylite Plus (Perkin Elmer, catalog #6016751) was then added ([…]), the plates were mixed on an orbital shaker at room temperature in the dark for 15 min., and luminescence was measured using an Envision plate reader (Perkin Elmer). IC50 values were calculated using a four-parameter logistic curve fit. Results are shown below in Table 2; ND indicates no data.
row,SMILES,IC50
1,O=c1ccc(-c2nc(-c3ccc(OC(F)(F)F)cc3)no2)nn1Cc1ccnc(N2CCNCC2)c1 [Example 1],< 100 nM
2,CN1CCN(c2cc(Cn3nc(-c4nc(-c5ccc(OC(F)(F)F)cc5)no4)ccc3=O)ccn2)CC1 [Example 2],< 100 nM
3,"CN1CCN(c2cc(Cn3nc(C(=O)Nc4ccc(OC(F)(F)F)cc4)ccc3=O)ccn2)CC1 [Example 3, 1-(2-(4-Methylpiperazin-1-yl)pyridin-4-yl)methyl)-6-oxo-N-(4-(trifluoromethoxy)phenyl)-1,6-dihydropyridazine-3-carboxamide bis trifluoroacetate salt]",100 to 1000 nM
4,"CN1CCN(c2cccc(Cn3nc(C(=O)Nc4ccc(OC(F)(F)F)cc4)ccc3=O)c2)CC1 [Example 4, 1-(3-(4-Methylpiperazin-1-yl)benzyl)-6-oxo-N-(4-(trifluoromethoxy)phenyl)-1,6-dihydropyridazine-3-carboxamide trifluoroacetate salt]",< 100 nM
5,"Cc1ccc(-c2nc(-c3ccc(OC(F)(F)F)cc3)no2)c(=O)n1Cc1ccnc(N2CCN(C)CC2)c1 [Example 5, 1-methyl-4-(4-((6-methyl-2-oxo-3-(3-(4-(trifluoromethoxy)phenyl)-1,2,4-oxadiazol-5-yl)pyridin-1(2H)-yl)methyl)pyridin-1-ium-2-yl)piperazin-1-ium bis-trifluoroacetate]",< 100 nM
6,"Cc1ccc(-c2nc(-c3ccc(OC(F)(F)F)cc3)no2)c(=O)n1Cc1cccc(N2CCN(C)CC2)c1 [Example 6, 1-Methyl-4-(3-((6-methyl-2-oxo-3-(3-(4-(trifluoromethoxy)phenyl)-1,2,4-oxadiazol-5-yl)pyridin-1(2H)-yl)methyl)phenyl)piperazin-1-ium trifluoroacetate]",< 100 nM
7,"Cc1ccc(C(=O)Nc2ccc(OC(F)(F)F)cc2)c(=O)n1Cc1ccnc(N2CCN(C)CC2)c1 [Example 8, 1-methyl-4-(4-((6-methyl-2-oxo-3-((4-(trifluoromethoxy)phenyl)carbamoyl)pyridin-1(2H)-yl)methyl)pyridin-1-ium-2-yl)piperazin-1-ium bis-trifluoroacetate]",< 100 nM
8,"CN1CCN(c2cc(Cn3cccc(C(=O)Nc4ccc(OC(F)(F)F)cc4)c3=O)ccn2)CC1 [Example 9, 1-methyl-4-(4-((2-oxo-3-((4-(trifluoromethoxy)phenyl)carbamoyl)pyridin-1(2H)-yl)methyl)pyridin-1-ium-2-yl)piperazin-1-ium bis-trifluoroacetate]",100 to 1000 nM
9,"Cc1ccc(C(=O)Nc2ccc(OC(F)(F)F)cc2)c(=O)n1Cc1cccc(N2CCN(C)CC2)c1 [Example 10, 1-Methyl-4-(3-((6-methyl-2-oxo-3-((4-(trifluoromethoxy)phenyl)carbamoyl)pyridin-1(2H)-yl)methyl)phenyl)piperazin-1-ium trifluoroacetate]",< 100 nM
10,"CN1CCN(c2cccc(Cn3cccc(C(=O)Nc4ccc(OC(F)(F)F)cc4)c3=O)c2)CC1 [Example 11, 1-Methyl-4-(3-((2-oxo-3-((4-(trifluoromethoxy)phenyl)carbamoyl)pyridin-1(2H)-yl)methyl)phenyl)piperazin-1-ium trifluoroacetate]",< 100 nM
11,"O=c1ccc(-c2nc(-c3ccc(OC(F)(F)F)cc3)no2)nn1Cc1ccnc(N2CCOCC2)c1 [Example 12, 2-((2-Morpholinopyridin-4-yl)methyl)-6-(3-(4-(trifluoromethoxy)phenyl)-1,2,4-oxadiazol-5-yl)pyridazin-3(2H)-one]",< 100 nM
12,"CN1CCN(c2cccc(Cn3nc(-c4nc(-c5ccc(OC(F)(F)F)cc5)no4)ccc3=O)c2)CC1 [Example 13, 2-(3-(4-Methylpiperazin-1-yl)benzyl)-6-(3-(4-(trifluoromethoxy)phenyl)-1,2,4-oxadiazol-5-yl)pyridazin-3(2H)-one]",< 100 nM
13,"O=c1ccc(-c2nc(-c3ccc(OC(F)(F)F)cc3)no2)nn1Cc1cccc(N2CCOCC2)c1 [Example 14, 2-(3-Morpholinobenzyl)-6-(3-(4-(trifluoromethoxy)phenyl)-1,2,4-oxadiazol-5-yl)pyridazin-3(2H)-one]",< 100 nM
14,"Cc1ccc(-c2nc(-c3ccc(OC(F)(F)F)cc3)no2)c(=O)n1Cc1ccnc(N2CCCCC2)c1 [Example 15, 4-((6-Methyl-2-oxo-3-(3-(4-(trifluoromethoxy)phenyl)-1,2,4-oxadiazol-5-yl)pyridin-1(2H)-yl)methyl)-2-(piperidin-1-yl)pyridin-1-ium trifluoroacetate]",< 100 nM
15,"Cc1ccc(-c2nc(-c3ccc(OC(F)(F)F)cc3)no2)c(=O)n1Cc1ccnc(N2CCCC2)c1 [Example 16, 4-((6-methyl-2-oxo-3-(3-(4-(trifluoromethoxy)phenyl)-1,2,4-oxadiazol-5-yl)pyridin-1(2H)-yl)methyl)-2-(pyrrolidin-1-yl)pyridin-1-ium trifluoroacetate]",< 100 nM
16,"COCCCNc1cc(Cn2c(C)ccc(-c3nc(-c4ccc(OC(F)(F)F)cc4)no3)c2=O)ccn1 [Example 17, 2-((3-Methoxypropyl)amino)-4-((6-methyl-2-oxo-3-(3-(4-(trifluoromethoxy)phenyl)-1,2,4-oxadiazol-5-yl)pyridin-1(2H)-yl)methyl)pyridin-1-ium trifluoroacetate]",100 to 1000 nM
17,"Cc1ccc(-c2nc(-c3ccc(OC(F)(F)F)cc3)no2)c(=O)n1Cc1ccnc(N2CCOCC2)c1 [Example 18, 4-((6-Methyl-2-oxo-3-(3-(4-(trifluoromethoxy)phenyl)-1,2,4-oxadiazol-5-yl)pyridin-1(2H)-yl)methyl)-2-morpholinopyridin-1-ium trifluoroacetate]",< 100 nM
18,"Cc1cnc(-c2nc(-c3ccc(OC(F)(F)F)cc3)no2)nc1Cc1cccc(N2CCN(C)CC2)c1 [Example 19, 5-(5-methyl-4-(3-(4-methylpiperazin-1-yl)benzyl)pyrimidin-2-yl)-3-(4-(trifluoromethoxy)phenyl)-1,2,4-oxadiazole]",< 100 nM
19,"CN1CCN(c2cc(Cn3cccc(-c4nc(-c5ccc(OC(F)(F)F)cc5)no4)c3=O)ccn2)CC1 [Example 20, 1-((2-(4-methylpiperazin-1-yl)pyridin-4-yl)methyl)-3-(3-(4-(trifluoromethoxy)phenyl)-1,2,4-oxadiazol-5-yl)pyridin-2(1H)-one]",100 to 1000 nM
20,"Cc1ccc(-c2nnc(-c3ccc(OC(F)(F)F)cc3)o2)c(=O)n1Cc1ccnc(N2CCN(C)CC2)c1 [Example 21, 6-methyl-1-((2-(4-methylpiperazin-1-yl)pyridin-4-yl)methyl)-3-(5-(4-(trifluoromethoxy)phenyl)-1,3,4-oxadiazol-2-yl)pyridin-2(1H)-one]",1000 to 10000 nM
21,"Cc1ccc(-c2nc(-c3ccc(OC(F)(F)F)cc3)no2)c(=O)n1Cc1cccc(C(N)=O)c1 [Example 22, 3-((6-Methyl-2-oxo-3-(3-(4-(trifluoromethoxy)phenyl)-1,2,4-oxadiazol-5-yl)pyridin-1(2H)-yl)methyl)benzamide]",100 to 1000 nM
22,"CNC(=O)c1cccc(Cn2c(C)ccc(-c3nc(-c4ccc(OC(F)(F)F)cc4)no3)c2=O)c1 [Example 23, N-Methyl-3-((6-methyl-2-oxo-3-(3-(4-(trifluoromethoxy)phenyl)-1,2,4-oxadiazol-5-yl)pyridin-1(2H)-yl)methyl)benzamide]",100 to 1000 nM
23,"Cc1ccc(Cn2nc(-c3nc(-c4ccc(OC(F)(F)F)cc4)no3)ccc2=O)cc1 [Example 24, 2-(4-Methylbenzyl)-6-(3-(4-(trifluoromethoxy)phenyl)-1,2,4-oxadiazol-5-yl)pyridazin-3(2H)-one]",< 100 nM
24,"NC(=O)c1cccc(Cn2cc(-c3nc(-c4ccc(OC(F)(F)F)cc4)no3)ccc2=O)c1 [Example 25, 3-((2-oxo-5-(3-(4-(trifluoromethoxy)phenyl)-1,2,4-oxadiazol-5-yl)pyridin-1(2H)-yl)methyl)benzamide]",< 100 nM

# Same assay, conditions: 6 hrs hypoxia (1% O2), luminescence
row,SMILES,IC50
1,"O=c1ccc(-c2nc(-c3ccc(OC(F)(F)F)cc3)no2)cn1Cc1cccc(C(O)CO)c1 (single isomer, unassigned) [Example 53a, (1R)- or (1S)-1-(3-(1,2-dihydroxyethyl)benzyl)-5-(3-(4-(trifluoromethoxy)phenyl)-1,2,4-oxadiazol-5-yl)pyridin-2(1H)-one]",< 100 nM
2,"O=c1ccc(-c2nc(-c3ccc(OC(F)(F)F)cc3)no2)cn1Cc1cccc(C(O)CO)c1 (single isomer, unassigned) [Example 53b, (1S)- or (1R)-1-(3-(1,2-dihydroxyethyl)benzyl)-5-(3-(4-(trifluoromethoxy)phenyl)-1,2,4-oxadiazol-5-yl)pyridin-2(1H)-one]",< 100 nM
3,"O=c1ccc(-c2nc(-c3ccc(OC(F)(F)F)cc3)no2)cn1Cc1cccc(OCC(O)CO)c1 (single isomer, unassigned) [Example 55a, (2R)- or (2S)-1-(3-(2,3-dihydroxypropoxy)benzyl)-5-(3-(4-(trifluoromethoxy)phenyl)-1,2,4-oxadiazol-5-yl)pyridin-2(1H)-one]",< 100 nM
4,"O=c1ccc(-c2nc(-c3ccc(OC(F)(F)F)cc3)no2)cn1Cc1cccc(OCC(O)CO)c1 (single isomer, unassigned) [Example 55b, (2S)- or (2R)-1-(3-(2,3-dihydroxypropoxy)benzyl)-5-(3-(4-(trifluoromethoxy)phenyl)-1,2,4-oxadiazol-5-yl)pyridin-2(1H)-one]",< 100 nM
